Measured values as given in patent publication US20120070377A1, “COMPOUNDS AND BIOLOGICAL MATERIALS AND USES THEREOF” (priority 2009, published 2012).

Experiments:
SKOV3 cells = test: Confocal fluorescence microscopy, intracellular localisation with organelle co-stains; assay type: cell-based, human
Description: Imaging took place at the FILM Imperial College London on a LEICA SP5 MP inverted confocal microscope, at 37° C. and under a CO2 supplemented atmosphere. The water objective (63×) was used in all the experiments. Images were processed using the Leica software, Image J and Powerpoint.
Note: in any experiment where a photosensitiser is used on cells, the experiment is done under subdued lighting exposing the cells to as little light as possible and incubating wrapped in foil. Following addition of PS to cells, cells were no longer observed on the microscope.
Cells were plated on a Labt-Tek® 8 Chambered #1.0 Borosilicate Coverglass System. With some cell lines, it is often useful to use an attachment factor (200 μl, 30 mins, 37° C.) to coat the wells first.
Photosensitiser solutions in phenol red free DMEM (10% FBS, 1% P/S, 0.5% DMSO) were prepared fresh and pre-warmed to 37° C. for 15 mins. The cells were washed with media (1×200 μl) before adding the solutions (200 μl per chamber). Unless otherwise stated, the cells were grown over 20 hrs in a humidified atmosphere (37° C., 5% CO2). The cells were washed (2×200 μl) with prewarmed phenol red free DMEM
(§1) Lysotracker® Green DND-26 was diluted according to manufacturers indications (1 mM stock) and further diluted to twice the working concentration in DMEM (10% FBS, 1% P/S). For use for single colour staining, this was diluted with DMEM (10% FBS, 1% P/S) to a final concentration of 1 μM. When it was used for two colour staining with photosensitisers, a 2 μM solution was twice diluted in photosensitiser solution to give a 1 μM final concentration.
The cells were incubated for 15 mins at 4° C. and a further 30 mins at 37° C. before replacing with fresh medium and imaging.
as §1, with “MitoTracker®” for “Lysotracker®”, “Green” for “Green DND-26”
The cells were incubated for 15 mins at 4° C. and a further 1 hr at 37° C. before replacing with fresh medium and imaging.
ER-Tracker™ Green (BODIPY® FL glibenclamide) was diluted according to manufacturer's indications (1 mM stock) and further diluted to twice the working concentration in HBSS buffer (+2% HEPES). For use for single colour staining, this was diluted with HBSS (+2% HEPES) to a final concentration of 3 μM. When it was used for two colour staining with photosensitisers, a 6 μM solution was twice diluted in photosensitiser solution to give a 3 μM final concentration.
The cells were incubated for 15 mins at 4° C. and a further 1 hr at 37° C. before replacing with fresh buffer and imaging.
Bodipy® FL C5-ceramide complexed to BSA was diluted according to manufacturer's indications (0.5 mM stock) and further diluted to twice the working concentration in HBSS buffer (+2 HEPES). For use for single colour staining, this was diluted with HBSS (+2% HEPES) to a final concentration of 5 μM. When it was used for two colour staining with photosensitisers, a 10 μM solution was twice diluted in photosensitiser solution to give a 5 μM final concentration. The cells were incubated for 15 mins at 4° C. and a further 30 mins at 37° C. before washing with cold HBSS/HEPES (3×100 μl) and replacing with either HBSS/HEPES or photosensitiser solution and incubating at 37° C. for a further 30 mins before replacing with fresh buffer and imaging.

[1] = Biodistribution and blood clearance of 125I-radiolabelled photosensitisers and PICs in SKOV3 tumour mice; assay type: in vivo, BALB/c nude mice; conditions: mouse, in vivo, iv
Description: 0.1 mg of photosensitiser was dissolved in 0.5 ml PBS. Radiolabelled Iodine (Na^125I, ICN chemicals) was added to 0.1 ml of PBS in Iodogen-coated tubes (Pierce chemicals) and allowed to activate. The activated iodine-125 was transferred to the photosensitiser and allowed to react for 5-10 minutes at room temperature. The radiolabelled photosensitiser was separated from free iodine on a mini silica gel column eluting with 100% PBS to remove the iodinating agent followed by a gradual switch from 10% MeOH/PBS to 100% MeOH with the radiolabelled photosenstiser eluting with 10% MeOH/chloroform. The radiolabelled solutions of the photosensitiser was allowed to air-dry and re-suspended in PBS containing 2% DMSO.
(§2) Female BALB/c nude mice (aged 6-8 weeks old) were implanted with 10^7 SKOV3 tumour cells mixed in 0.1 ml of ice-cold matrigel subcutaneously and the tumours were allowed to grow for 3-6 weeks as xenografts. Mice were maintained in IVC cages (individually-vented cages) in a clean room. Samples were injected in a volume of 0.1 ml, intravenously via the lateral tail vein and the mice were maintained in low light with full food and water (irradiated). At various time points (1-24 hr), mice were culled by cardiac puncture under terminal anesthesia and blood and tissues collected. All the tissues were counted for radioactivity by gamma counting and weighed.
The results are shown as a percentage of radioactive material injected per gram of tissue.
(§3) The PS (PPa and PPa-PEG) were chemically coupled to C6 scFv, radiolabelled with iodogen as before, but dialysed against 3×5 L of PBS to remove the free iodine and injected into BALB/c nude mice with SKOV3 tumours as above. Tissues were dissected and counted as above.

SKOV3 tumour = test: Tumour uptake and tumour:blood ratio of radiolabelled photosensitisers and PICs; assay type: in vivo, BALB/c nude mice; conditions: mouse, in vivo
Description: as §2, §3
The tumours were counted for radioactivity and expressed as % of the injected dose/g of tumour tissue (FIG. 10).
The percentage PS in the tumour was divided by the percentage in the blood (gram for gram) to give a targeting or tumour:blood ratio (the higher the better). This plotted in FIG. 11. A high tumour:blood ratio means that there is more in the tumour compared to the blood (and other tissues). This is a function of tumour uptake and blood clearance (see FIGS. 9 and 10).

CCC1=C(C)c2cc3[nH]c(c(C)c3CC)c(C#CCCCC(=O)ON3C(=O)CCC3=O)c3nc(c4c5[nH]c(cc1n2)c(C)c5C(=O)C4)[C@@H](CCC(=O)OCc1cc(OCCOCCOCCOC)c(OCCOCCOCCOC)c(OCCOCCOCCOC)c1)[C@@H]3C [compound 11, Meso 5-Ethynylhexanoyl succinimido ester pyropheophorbide a-3,4,5-(triethylene glycolmonomethylether) benzyl ester]
golgi localisation (co-localisation with Bodipy ceramide) (SKOV3 cells; FIG. 20): significant yellow staining
mitochondrial localisation (co-localisation with Mito-tracker) (SKOV3 cells; FIG. 21): significant yellow staining
lysosomal localisation (co-localisation with Lyso-tracker) (SKOV3 cells; FIG. 22): some yellow staining
ER localisation (co-localisation with ER-tracker) (SKOV3 cells; FIG. 23): significant yellow staining
blood clearance [1]: faster than PPa
tumour accumulation relative to the level of PPa (SKOV3 tumour): about ⅓
